Reference: patent publication US20040166058A1, “Ethylenedicysteine (EC)-drug conjugates, compositions and methods for tissue specific disease imaging” (Board of Regents, The University of Texas System, priority 2002, published 2004)

How the values were obtained:
[1] = system: human lung cancer cells (A549 tumor cell line); assay: Biodistribution in lung tumor-bearing nude mice; assay type: in vivo, athymic nude mice; conditions: for Biodistribution Blood / Biodistribution Brain / Biodistribution Heart / Biodistribution Intestine / Biodistribution Kidney / Biodistribution Liver / Biodistribution Lung / Biodistribution Muscle / Biodistribution Spleen / Biodistribution Stomach / Biodistribution Thyroid / Biodistribution Tumor / Tumor/Blood / Tumor/Lung / Tumor/Muscle: intravenously
Protocol: Female athymic nude mice (NCr-nu/nu, NCI, Bethasda, Md.) were inoculated with human lung cancer cells (A549 tumor cell line, 3×10^6 cells/mouse, intramuscular) by one author in the mid-dorsal region. After the tumor reached 6 mm, separate biodistribution studies using ^99mTc-EC-DG and 18F-FDG were conducted. Each received ^99mTc-EC-DG or 18F-FDG intravenously (n=3/time point). The injection activity was 1-3 μCi/mouse. The injected mass of ^99mTc-EC-DG was 0.2 mg/rodent.

[2] = system: RBA CRL-1747 mammary tumor; assay: Biodistribution in mammary (breast) tumor-bearing rats; assay type: in vivo; conditions: iv
Protocol: (§1) Biodistribution was assessed in mammary tumor-bearing rats (RBA CRL-1747, n=3/time interval, iv). Studies were performed 14 to 17 days after implantation when tumors reached approximately 1 cm in diameter. Following administration of the radiotracer, rats were sacrificed at 0.5-4 hrs. The selected tissues were excised, weighed and counted for radioactivity by using a gamma counter (Packard Instruments, Downers Grove, Ill.). The biodistribution of tracer in each sample was calculated as percentage of the injected dose per gram of tissue wet weight (% ID/g).
as §1, with “breast” for “mammary”

With OC[C@H]1OC(O)[C@H]([18F])[C@@H](O)[C@@H]1O (some centres unmarked) [^18FDG, [^18F]fluorodeoxyglucose, reference compound] the “Biodistribution Blood” value ([1]; 30 min) was 0.793 ± 0.067 % of injected dose per gram of tissue weight, the “Biodistribution Brain” value ([1]; 30 min) was 6.557 ± 0.390 % of injected dose per gram of tissue weight and the “Biodistribution Heart” value ([1]; 30 min) was 11.94 ± 2.571 % of injected dose per gram of tissue weight. For the same compound, the “Biodistribution Intestine” value ([1]; 30 min) was 2.322 ± 0.542 % of injected dose per gram of tissue weight, the “Biodistribution Kidney” value ([1]; 30 min) was 1.137 ± 0.117 % of injected dose per gram of tissue weight and the “Biodistribution Liver” value ([1]; 30 min) was 1.051 ± 0.057 % of injected dose per gram of tissue weight. For the same compound, the “Biodistribution Lung” value ([1]; 30 min) was 2.490 ± 0.209 % of injected dose per gram of tissue weight, the “Biodistribution Muscle” value ([1]; 30 min) was 4.876 ± 0.621 % of injected dose per gram of tissue weight and the “Biodistribution Spleen” value ([1]; 30 min) was 1.824 ± 0.196 % of injected dose per gram of tissue weight. For the same compound, the “Biodistribution Stomach” value ([1]; 30 min) was 5.046 ± 0.461 % of injected dose per gram of tissue weight, the “Biodistribution Thyroid” value ([1]; 30 min) was 4.490 ± 0.526 % of injected dose per gram of tissue weight and the “Biodistribution Tumor” value ([1]; 30 min) was 2.226 ± 0.150 % of injected dose per gram of tissue weight. It also gave a Tumor/Blood ([1]; 30 min) of 2.821 ± 0.144, a Tumor/Lung ([1]; 30 min) of 0.912 ± 0.119 and a Tumor/Muscle ([1]; 30 min) of 0.463 ± 0.026. The “Biodistribution Blood” value ([1]; 2 h) was 0.236 ± 0.009 % of injected dose per gram of tissue weight, the “Biodistribution Brain” value ([1]; 2 h) was 3.113 ± 0.132 % of injected dose per gram of tissue weight and the “Biodistribution Heart” value ([1]; 2 h) was 20.33 ± 7.675 % of injected dose per gram of tissue weight. The “Biodistribution Intestine” value ([1]; 2 h) was 2.764 ± 0.496 % of injected dose per gram of tissue weight, the “Biodistribution Kidney” value ([1]; 2 h) was 0.553 ± 0.104 % of injected dose per gram of tissue weight and the “Biodistribution Liver” value ([1]; 2 h) was 0.586 ± 0.040 % of injected dose per gram of tissue weight. For the same compound, the “Biodistribution Lung” value ([1]; 2 h) was 2.222 ± 0.137 % of injected dose per gram of tissue weight, the “Biodistribution Muscle” value ([1]; 2 h) was 5.409 ± 0.611 % of injected dose per gram of tissue weight and the “Biodistribution Spleen” value ([1]; 2 h) was 1.903 ± 0.144 % of injected dose per gram of tissue weight. The “Biodistribution Stomach” value ([1]; 2 h) was 4.374 ± 0.864 % of injected dose per gram of tissue weight, the “Biodistribution Thyroid” value ([1]; 2 h) was 4.617 ± 0.400 % of injected dose per gram of tissue weight and the “Biodistribution Tumor” value ([1]; 2 h) was 1.699 ± 0.172 % of injected dose per gram of tissue weight. For the same compound, the Tumor/Blood ([1]; 2 h) was 7.261 ± 1.007, the Tumor/Lung ([1]; 2 h) was 0.775 ± 0.113 and the Tumor/Muscle ([1]; 2 h) was 0.319 ± 0.031. For the same compound, the “Biodistribution Blood” value ([1]; 4 h) was 0.203 ± 0.062 % of injected dose per gram of tissue weight, the “Biodistribution Brain” value ([1]; 4 h) was 2.065 ± 0.080 % of injected dose per gram of tissue weight and the “Biodistribution Heart” value ([1]; 4 h) was 19.35 ± 8.286 % of injected dose per gram of tissue weight. For the same compound, the “Biodistribution Intestine” value ([1]; 4 h) was 1.562 ± 0.342 % of injected dose per gram of tissue weight, the “Biodistribution Kidney” value ([1]; 4 h) was 0.568 ± 0.027 % of injected dose per gram of tissue weight and the “Biodistribution Liver” value ([1]; 4 h) was 0.785 ± 0.039 % of injected dose per gram of tissue weight. The “Biodistribution Lung” value ([1]; 4 h) was 2.280 ± 0.182 % of injected dose per gram of tissue weight, the “Biodistribution Muscle” value ([1]; 4 h) was 4.743 ± 0.610 % of injected dose per gram of tissue weight and the “Biodistribution Spleen” value ([1]; 4 h) was 1.591 ± 0.161 % of injected dose per gram of tissue weight. For the same compound, the “Biodistribution Stomach” value ([1]; 4 h) was 2.278 ± 0.455 % of injected dose per gram of tissue weight, the “Biodistribution Thyroid” value ([1]; 4 h) was 4.424 ± 0.442 % of injected dose per gram of tissue weight and the “Biodistribution Tumor” value ([1]; 4 h) was 1.606 ± 0.182 % of injected dose per gram of tissue weight. It also gave a Tumor/Blood ([1]; 4 h) of 8.932 ± 1.973, a Tumor/Lung ([1]; 4 h) of 0.717 ± 0.106 and a Tumor/Muscle ([1]; 4 h) of 0.346 ± 0.048. For the same compound, the “tumor/blood ratios, 18F-FDG versus ^99mTc-EC-DG” value ([1]; mouse, in vivo) was “higher tumor/blood ratios”.

With O=C(O)[C@@H]1C[S][99Tc]23(=[O])[S]C[C@@H](C(=O)O)[N]2CC[N]13 [^99mTc-EC, ^99mTc-L,L-ethylenedicysteine, reference compound] the “Biodistribution Blood” value ([2]; 1 Hour) was 0.273 ± 0.039 % ID/g, the “Biodistribution Intestine” value ([2]; 1 Hour) was 0.787 ± 0.106 % ID/g and the “Biodistribution Kidney” value ([2]; 1 Hour) was 8.991 ± 0.268 % ID/g. The “Biodistribution Liver” value ([2]; 1 Hour) was 0.367 ± 0.006 % ID/g, the “Biodistribution Lung” value ([2]; 1 Hour) was 0.187 ± 0.029 % ID/g and the “Biodistribution Muscle” value ([2]; 1 Hour) was 0.043 ± 0.002 % ID/g. For the same compound, the “Biodistribution Stomach” value ([2]; 1 Hour) was 0.127 ± 0.106 % ID/g, the “Biodistribution Thyroid” value ([2]; 1 Hour) was 0.229 ± 0.118 % ID/g and the “Biodistribution Tumor” value ([2]; 1 Hour) was 0.149 ± 0.020 % ID/g. For the same compound, the “Biodistribution Urine” value ([2]; 1 Hour) was 11.045 ± 6.158 % ID/g, the Tumor/Blood ([2]; 1 Hour) was 0.544 ± 0.004 and the Tumor/Lung ([2]; 1 Hour) was 0.797 ± 0.022. For the same compound, the Tumor/Muscle ([2]; 1 Hour) was 3.414 ± 0.325, the “Biodistribution Blood” value ([2]; 2 Hour) was 0.211 ± 0.001 % ID/g and the “Biodistribution Intestine” value ([2]; 2 Hour) was 0.401 ± 0.093 % ID/g. The “Biodistribution Kidney” value ([2]; 2 Hour) was 9.116 ± 0.053 % ID/g, the “Biodistribution Liver” value ([2]; 2 Hour) was 0.286 ± 0.073 % ID/g and the “Biodistribution Lung” value ([2]; 2 Hour) was 0.144 ± 0.002 % ID/g. For the same compound, the “Biodistribution Muscle” value ([2]; 2 Hour) was 0.028 ± 0.009 % ID/g, the “Biodistribution Stomach” value ([2]; 2 Hour) was 0.037 ± 0.027 % ID/g and the “Biodistribution Thyroid” value ([2]; 2 Hour) was 0.106 ± 0.003 % ID/g. For the same compound, the “Biodistribution Tumor” value ([2]; 2 Hour) was 0.115 ± 0.002 % ID/g, the “Biodistribution Urine” value ([2]; 2 Hour) was 13.192 ± 4.505 % ID/g and the Tumor/Blood ([2]; 2 Hour) was 0.546 ± 0.010. The Tumor/Lung ([2]; 2 Hour) was 0.797 ± 0.002, the Tumor/Muscle ([2]; 2 Hour) was 4.425 ± 1.397 and the “Biodistribution Blood” value ([2]; 4 Hour) was 0.149 ± 0.008 % ID/g. For the same compound, the “Biodistribution Intestine” value ([2]; 4 Hour) was 0.103 ± 0.009 % ID/g, the “Biodistribution Kidney” value ([2]; 4 Hour) was 7.834 ± 1.018 % ID/g and the “Biodistribution Liver” value ([2]; 4 Hour) was 0.234 ± 0.016 % ID/g. For the same compound, the “Biodistribution Lung” value ([2]; 4 Hour) was 0.120 ± 0.012 % ID/g, the “Biodistribution Muscle” value ([2]; 4 Hour) was 0.019 ± 0.001 % ID/g and the “Biodistribution Stomach” value ([2]; 4 Hour) was 0.043 ± 0.014 % ID/g. For the same compound, the “Biodistribution Thyroid” value ([2]; 4 Hour) was 0.082 ± 0.005 % ID/g, the “Biodistribution Tumor” value ([2]; 4 Hour) was 0.096 ± 0.005 % ID/g and the “Biodistribution Urine” value ([2]; 4 Hour) was 8.693 ± 2.981 % ID/g. The Tumor/Blood ([2]; 4 Hour) was 0.649 ± 0.005, the Tumor/Lung ([2]; 4 Hour) was 0.798 ± 0.007 and the Tumor/Muscle ([2]; 4 Hour) was 5.093 ± 0.223. The “Biodistribution Blood” value ([2]; 30 Min.) was 0.435 ± 0.29 % ID/g, the “Biodistribution Intestine” value ([2]; 30 Min.) was 0.173 ± 0.029 % ID/g and the “Biodistribution Kidney” value ([2]; 30 Min.) was 7.914 ± 0.896 % ID/g. For the same compound, the “Biodistribution Liver” value ([2]; 30 Min.) was 0.508 ± 0.062 % ID/g, the “Biodistribution Lung” value ([2]; 30 Min.) was 0.272 ± 0.019 % ID/g and the “Biodistribution Muscle” value ([2]; 30 Min.) was 0.060 ± 0.006 % ID/g. The “Biodistribution Stomach” value ([2]; 30 Min.) was 0.136 ± 0.060 % ID/g, the “Biodistribution Thyroid” value ([2]; 30 Min.) was 0.219 ± 0.036 % ID/g and the “Biodistribution Tumor” value ([2]; 30 Min.) was 0.342 ± 0.163 % ID/g. For the same compound, the “Biodistribution Urine” value ([2]; 30 Min.) was 9.124 ± 0.808 % ID/g, the Tumor/Blood ([2]; 30 Min.) was 0.776 ± 0.322 and the Tumor/Lung ([2]; 30 Min.) was 1.256 ± 0.430. For the same compound, the Tumor/Muscle ([2]; 30 Min.) was 5.841 ± 3.253.
